# Experimental data published in patent US20070225292A1, “Therapeutic Compounds: Pyridine as Scaffold” (priority 2004, published 2007).
# Columns and labels:
# Human CB1 receptor [1] = molecular target: T1, Human CB1 receptor (Homo sapiens, UniProt P21554); assay: hCB1 receptor binding (3H-CP55,940 displacement); conditions: human CB1 membranes, Ki=IC50/(1+[rad]/Kd)
# T1 construct: purchased Receptor Biology
# Description: Human CB1 receptor from Receptor Biology (hCB1) or human CB2 receptor from BioSignal (hCB2) membranes are thawed at 37° C., passed 3 times through a 25-gauge blunt-end needle, diluted in the cannabinoid binding buffer (50 mM Tris, 2.5 mM EDTA, 5 mM MgCl2, and 0.5 mg/mL BSA fatty acid free, pH 7.4) and aliquots containing the appropriate amount of protein are distributed in 96-well plates. The IC50 of the compounds of the invention at hCB1 and hCB2 are evaluated from 10-point dose-response curves done with ^3H-CP55,940 at 20000 to 25000 dpm per well (0.17-0.21 nM) in a final volume of 300 μl. The total and non-specific binding are determined in the absence and presence of 0.2 μM of HU210 respectively. The plates are vortexed and incubated for 60 minutes at room temperature, filtered through Unifilters GF/B (presoaked in 0.1% polyethyleneimine) with the Tomtec or Packard harvester using 3 mL of wash buffer (50 mM Tris, 5 mM MgCl2, 0.5 mg BSA pH 7.0). The filters are dried for 1 hour at 55° C. The radioactivity (cpm) is counted in a TopCount (Packard) after adding 65 μl/well of MS-20 scintillation liquid.
# Based on the above assays, the dissociation constant (Ki) for a particular compound of the invention towards a particular receptor is determined using the following equation: Ki=IC50/(1+[rad]/Kd),
# Wherein IC50 is the concentration of the compound of the invention at which 50% displacement has been observed;
# [rad] is a standard or reference radioactive ligand concentration at that moment; and
# Kd is the dissociation constant of the radioactive ligand towards the particular receptor.
# Human CB1 receptor [2] = molecular target: T1, Human CB1 receptor; assay: hCB1 GTPγS binding; assay type: biochemical; conditions: human CB1 membranes, GTPg35S binding; for Emax: maximal stimulated binding with 10 μM Win 55,212-2; for EC50: read-out: EC5O (hCB1)
# Description: Human CB1 receptor from Receptor Biology (hCB1) or human CB2 receptor membranes (BioSignal) are thawed at 37° C., passed 3 times through a 25-gauge blunt-end needle and diluted in the GTPγS binding buffer (50 mM Hepes, 20 mM NaOH, 100 mM NaCl, 1 mM EDTA, 5 mM MgCl2, pH 7.4, 0.1% BSA). The EC50 and Emax of the compounds of the invention are evaluated from 10-point dose-response curves done in 300 μl with the appropriate amount of membrane protein and 100000-130000 dpm of GTPg^35S per well (0.11-0.14 nM). The basal and maximal stimulated binding is determined in absence and presence of 1 μM (hCB2) or 10 μM (hCB1) Win 55,212-2 respectively. The membranes are pre-incubated for 5 minutes with 56.25 μM (hCB2) or […] (hCB1) GDP prior to distribution in plates (15 μM (hCB2) or 30 μM (hCB1) GDP final). The plates are vortexed and incubated for 60 minutes at room temperature, filtered on Unifilters GF/B (presoaked in water) with the Tomtec or Packard harvester using 3 ml of wash buffer (50 mM Tris, 5 mM MgCl2, 50 mM NaCl, pH 7.0). The filters are dried for 1 hour at 55° C. The radioactivity (cpm) is counted in a TopCount (Packard) after adding 65 μl/well of MS-20 scintillation liquid. Antagonist reversal studies are done in the same way except that (a) an agonist dose-response curve is done in the presence of a constant concentration of antagonist, or (b) an antagonist dose-response curve is done in the presence of a constant concentration of agonist.
# T1 sequence (P21554 whole entry): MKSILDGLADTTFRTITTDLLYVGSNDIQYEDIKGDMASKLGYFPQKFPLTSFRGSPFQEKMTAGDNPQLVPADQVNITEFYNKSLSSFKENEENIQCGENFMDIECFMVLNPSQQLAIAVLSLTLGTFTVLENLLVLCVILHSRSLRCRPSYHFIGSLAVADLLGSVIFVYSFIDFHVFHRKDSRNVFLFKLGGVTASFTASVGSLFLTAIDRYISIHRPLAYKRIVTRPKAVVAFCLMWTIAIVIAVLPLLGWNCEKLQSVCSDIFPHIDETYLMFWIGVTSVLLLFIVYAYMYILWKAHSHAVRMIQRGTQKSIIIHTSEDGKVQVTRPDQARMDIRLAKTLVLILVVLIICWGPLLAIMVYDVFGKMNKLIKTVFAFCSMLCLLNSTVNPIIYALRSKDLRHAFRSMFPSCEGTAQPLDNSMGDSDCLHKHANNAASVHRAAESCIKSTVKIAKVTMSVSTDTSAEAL
structure (smiles),measurement,setting,value
"O=C(NCC1CCCC1)c1ncccc1NC(=O)c1cccc2ccccc12 [Example 13, N-(Cyclopentylmethyl)-3-[(1-naphthalenylcarbonyl)amino]-2-pyridinecarboxamide]",Ki,Human CB1 receptor [1],12 nM
same,Emax,Human CB1 receptor [2],105%
same,EC50,Human CB1 receptor [2],46 nM
"O=C(NCC1CCOCC1)c1nccnc1NC(=O)c1cccc2ccccc12 [Example 43, 3-(1-Naphthoylamino)-N-(tetrahydro-2H-pyran-4-ylmethyl)pyrazine-2-carboxamide]",Ki,Human CB1 receptor [1],181 nM
same,Emax,Human CB1 receptor [2],112%
same,EC50,Human CB1 receptor [2],907 nM
"Cc1ccc(C(=O)Nc2cccnc2C(=O)NCc2ccccn2)c2ccccc12 [Example 80, 3-(4-Methyl 1-naphthoylamino)-N-(pyridin-2-ylmethyl)pyridine-2-carboxamide]",Ki,Human CB1 receptor [1],221 nM
same,Emax,Human CB1 receptor [2],75%
same,EC50,Human CB1 receptor [2],1230 nM
"O=C(NCC1CCCCC1)c1ncccc1NC(=O)c1ccc(N2CCC2)c2ccccc12 [Example 171, 3-[(4-Azetidin-1-yl-1-naphthoyl)amino]-N-(cyclohexylmethyl)pyridine-2-carboxamide]",Ki,Human CB1 receptor [1],57 nM
same,Emax,Human CB1 receptor [2],71%
same,EC50,Human CB1 receptor [2],217 nM
